In brackets after ≈: the same amount, converted by molar mass.

The results in this text go back to ChEMBL document CHEMBL1157039, “Synthesis and characterization of novel fatty acid analogs of cholesterol: in vitro antimicrobial activity” (2010).

Assay [1] concerns Streptococcus mutans. In words: Antibacterial activity against Streptococcus mutans UA159 MTCC 497 after 24 hrs by microdilution method. The format is functional. The settings on record: UA159 MTCC 497, 24 h.
Assay [2] relates to Candida parapsilosis. The experiment in a line: Antifungal activity against Candida parapsilosis ATCC 22019 after 48 to 72 hrs by microdilution method. The class given is functional. The settings on record: Lodderomyces parapsilosis. For orientation: In broth dilution the organism is exposed to a series of concentrations in liquid medium.
The subject of assay [3] is Pichia kudriavzevii. In words: Antifungal activity against Candida krusei ATCC 6528 after 48 to 72 hrs by microdilution method. The class given is functional.
For assay [4], the system named is Candida albicans. In words: Antifungal activity against Candida albicans ATCC 24433 after 48 to 72 hrs by disk diffusion method. The format is functional. Background: A growth-free zone around the sample is the usual read-out of agar diffusion tests.
Assay [5] concerns Staphylococcus aureus. In words: Antibacterial activity against Staphylococcus aureus ATCC 25923 after 24 hrs by microdilution method. The class given is functional. The settings on record: ATCC 25923, 24 h.
Assay [6] deals with Candida albicans. The experiment in a line: Antifungal activity against Candida albicans ATCC 24433 after 48 to 72 hrs by microdilution method. The format is functional.
The subject of assay [7] is Escherichia coli. The experiment in a line: Antibacterial activity against Escherichia coli ATCC 25922 after 24 hrs by disk diffusion method. The format is functional.
For assay [8], the system named is Streptococcus pyogenes. The experiment in a line: Antibacterial activity against recultured Streptococcus pyogenes after 24 hrs by disk diffusion method. The class given is functional.
For assay [9], the system named is Staphylococcus aureus. The experiment in a line: Antibacterial activity against Staphylococcus aureus ATCC 25923 after 24 hrs by disk diffusion method. The format is functional.
For assay [10], the system named is Salmonella enterica. In words: Antibacterial activity against recultured Salmonella Typhimurium after 24 hrs by microdilution method. The format is functional, Salmonella enterica subsp. enterica serovar Typhimurium.
Assay [11] relates to Candida parapsilosis. In words: Antifungal activity against Candida parapsilosis ATCC 22019 after 48 to 72 hrs by disk diffusion method. The format is functional.
Assay [12] relates to Pichia kudriavzevii. The experiment in a line: Antifungal activity against Candida krusei ATCC 6528 after 48 to 72 hrs by disk diffusion method. The class given is functional.
In assay [13] the test system is Streptococcus mutans. The experiment in a line: Antibacterial activity against Streptococcus mutans UA159 MTCC 497 after 24 hrs by disk diffusion method. The class given is functional.
In assay [14] the test system is Escherichia coli. In words: Antibacterial activity against Escherichia coli ATCC 25922 after 24 hrs by microdilution method. The format is functional. The settings on record: ATCC 25922, 24 h.
The subject of assay [15] is Pseudomonas aeruginosa. In words: Antibacterial activity against Pseudomonas aeruginosa ATCC 27853 after 24 hrs by microdilution method. The class given is functional. The settings on record: ATCC 27853, 24 h.
Assay [16] deals with Streptococcus pyogenes. The experiment in a line: Antibacterial activity against recultured Streptococcus pyogenes after 24 hrs by microdilution method. The class given is functional.
In assay [17] the test system is Cryptococcus neoformans. In words: Antifungal activity Cryptococcus neoformans after 48 to 72 hrs by microdilution method. The class given is functional.
Assay [18] deals with Salmonella enterica. In words: Antibacterial activity against recultured Salmonella Typhimurium after 24 hrs by disk diffusion method. The format is functional, Salmonella enterica subsp. enterica serovar Typhimurium.
The test system of assay [19] is Cryptococcus neoformans. In words: Antifungal activity Cryptococcus neoformans after 48 to 72 hrs by disk diffusion method. The format is functional.
For assay [20], the system named is Pseudomonas aeruginosa. The experiment in a line: Antibacterial activity against Pseudomonas aeruginosa ATCC 27853 after 24 hrs by disk diffusion method. The format is functional.

As for `CC(C)CCC[C@@H](C)[C@H]1CC[C@H]2[C@@H]3C[C@@H](Br)[C@@]4(Br)C[C@@H](OC(=O)CCCCCCCCC(Br)CBr)CC[C@]4(C)[C@H]3CC[C@]12C` (stereo not given in full), the MIC (in general, the least concentration at which growth counts as inhibited) in the assay with Streptococcus mutans [1] was found to be 32 µg/mL (≈ 36.7 µM); against Candida parapsilosis [2] it was 64 µg/mL (≈ 73.3 µM); against Pichia kudriavzevii [3], 512 µg/mL (≈ 587 µM); with Staphylococcus aureus [5] it was 32 µg/mL (≈ 36.7 µM); with Candida albicans [6] it was 4 µg/mL (≈ 4.58 µM); in the assay with Salmonella enterica [10] it was 64 µg/mL (≈ 73.3 µM). Besides, the MIC in the assay with Escherichia coli [14] was determined as 32 µg/mL (≈ 36.7 µM); in the assay with Pseudomonas aeruginosa [15], 64 µg/mL (≈ 73.3 µM); against Streptococcus pyogenes [16] it was 32 µg/mL (≈ 36.7 µM); against Cryptococcus neoformans [17], 64 µg/mL (≈ 73.3 µM). In addition, the “diameter of the inhibition zone (DIZ)” value in the assay with Candida albicans [4] was found to be 17.8 mm; with Escherichia coli [7], 20.5 mm; in the assay with Streptococcus pyogenes [8] it was 23.3 mm; in the assay with Staphylococcus aureus [9], 22.5 mm; in the assay on Candida parapsilosis [11], 14.4 mm; in the assay on Pichia kudriavzevii [12], 15.5 mm. Also, the “diameter of the inhibition zone (DIZ)” value in the assay on Streptococcus mutans [13] is recorded as 23.1 mm; in the assay on Salmonella enterica [18], 21.3 mm; in the assay with Cryptococcus neoformans [19], 13.8 mm; with Pseudomonas aeruginosa [20], 17.1 mm.

`CC(C)CCC[C@@H](C)[C@H]1CC[C@H]2[C@@H]3CC=C4C[C@@H](OC(=O)CCCCCCCCC5CO5)CC[C@]4(C)[C@H]3CC[C@]12C` (stereo not given in full): the MIC worked out at 32 µg/mL (≈ 56.2 µM) against Streptococcus mutans [1]; 8 µg/mL (≈ 14.1 µM) in the assay with Candida parapsilosis [2]; 128 µg/mL (≈ 225 µM) with Pichia kudriavzevii [3]; 32 µg/mL (≈ 56.2 µM) in the assay with Staphylococcus aureus [5]; 1 µg/mL (≈ 1.76 µM) against Candida albicans [6]; 64 µg/mL (≈ 112 µM) against Salmonella enterica [10]. Also, the MIC is 32 µg/mL (≈ 56.2 µM) against Escherichia coli [14], 64 µg/mL (≈ 112 µM) in the assay with Pseudomonas aeruginosa [15], 32 µg/mL (≈ 56.2 µM) in the assay with Streptococcus pyogenes [16] and 32 µg/mL (≈ 56.2 µM) in the assay on Cryptococcus neoformans [17]. Also, the “diameter of the inhibition zone (DIZ)” value in the assay on Candida albicans [4] was found to be 19.6 mm; in the assay with Escherichia coli [7], 19.9 mm; in the assay with Streptococcus pyogenes [8], 20.5 mm; in the assay on Staphylococcus aureus [9] it was 21.9 mm; in the assay on Candida parapsilosis [11], 16.9 mm; in the assay with Pichia kudriavzevii [12], 17.8 mm. The “diameter of the inhibition zone (DIZ)” value with Streptococcus mutans [13] came to 21.9 mm; in the assay with Salmonella enterica [18], 17.2 mm; with Cryptococcus neoformans [19], 15.8 mm; with Pseudomonas aeruginosa [20] it was 18.5 mm.

Turning to `CCCCCCC(O)C/C=C\CCCCCCCC(=O)O[C@H]1CC[C@@]2(C)C(=CC[C@H]3[C@@H]4CC[C@H]([C@H](C)CCCC(C)C)[C@@]4(C)CC[C@@H]32)C1` (stereo not given in full), the MIC with Streptococcus mutans [1] was determined as 32 µg/mL (≈ 48 µM); against Candida parapsilosis [2] it was 8 µg/mL (≈ 12 µM); in the assay with Pichia kudriavzevii [3], 64 µg/mL (≈ 95.9 µM); with Staphylococcus aureus [5], 32 µg/mL (≈ 48 µM); in the assay on Candida albicans [6], 1 µg/mL (≈ 1.5 µM); with Salmonella enterica [10], 32 µg/mL (≈ 48 µM). In addition, the MIC against Escherichia coli [14] worked out at 32 µg/mL (≈ 48 µM); in the assay with Pseudomonas aeruginosa [15], 128 µg/mL (≈ 192 µM); in the assay with Streptococcus pyogenes [16], 32 µg/mL (≈ 48 µM); with Cryptococcus neoformans [17], 8 µg/mL (≈ 12 µM). The “diameter of the inhibition zone (DIZ)” value in the assay with Candida albicans [4] is given as 20.3 mm; in the assay with Escherichia coli [7], 20.4 mm; in the assay with Streptococcus pyogenes [8], 22.6 mm; in the assay with Staphylococcus aureus [9] it was 22.1 mm; in the assay on Candida parapsilosis [11], 17.8 mm; in the assay on Pichia kudriavzevii [12], 18.7 mm. The “diameter of the inhibition zone (DIZ)” value stood at 22.8 mm in the assay on Streptococcus mutans [13], 21.1 mm in the assay on Salmonella enterica [18], 16.9 mm in the assay with Cryptococcus neoformans [19] and 16.5 mm with Pseudomonas aeruginosa [20].
